Results from patent US9062071B2, “Substituted piperidines as HDM2 inhibitors” (Merck Sharp & Dohme Corp, priority 2011, dated 2015).

Target: HDM2 protein (Homo sapiens, UniProt Q00987)
Experiment: fluorescence polarization screening assay (FP IC50)
Assay type: binding
Conditions: class symbols
Protocol: The compounds were evaluated to determine activity at the HDM2 protein by known methods such as the fluorescence polarization screening assay that measures the inhibitory concentration that achieves 50% of maximal activity (FP IC50) and the dissociation constant for inhibitor binding (FP Ki). [Zhang et al., J. Analytical Biochemistry 331: 138-146 (2004)].

Sequence of HDM2 protein (Q00987 whole entry): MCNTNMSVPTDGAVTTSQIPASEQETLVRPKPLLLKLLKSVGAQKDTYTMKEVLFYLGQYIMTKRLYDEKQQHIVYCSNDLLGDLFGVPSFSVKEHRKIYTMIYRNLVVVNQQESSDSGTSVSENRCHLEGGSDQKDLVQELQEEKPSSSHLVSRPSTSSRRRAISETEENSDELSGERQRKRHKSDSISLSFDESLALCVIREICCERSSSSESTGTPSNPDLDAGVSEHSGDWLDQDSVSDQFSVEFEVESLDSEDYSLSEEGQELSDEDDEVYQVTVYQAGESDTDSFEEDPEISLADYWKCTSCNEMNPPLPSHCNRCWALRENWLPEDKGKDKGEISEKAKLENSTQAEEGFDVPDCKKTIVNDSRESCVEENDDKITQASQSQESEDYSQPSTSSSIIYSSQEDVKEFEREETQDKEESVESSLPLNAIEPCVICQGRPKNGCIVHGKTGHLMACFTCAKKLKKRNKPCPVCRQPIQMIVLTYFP

IC50: 1 to 100 nM
Compound: CCC[C@H]1N(C(=O)c2ncccc2C(F)(F)F)CCC[C@@]1(Oc1csc(C(F)(F)F)c1)C(=O)N1CCc2cc(Cl)ccc2C1COCC(=O)O (stereo partly drawn) [Compound A181, [(6-chloro-2-{[(2R,3S)-2-propyl-1-{[3-(trifluoromethyl)pyridin-2-yl]carbonyl}-3-{[5-(trifluoromethyl)thiophen-3-yl]oxy}piperidin-3-yl]carbonyl}-1,2,3,4-tetrahydroisoquinolin-1-yl)methoxy]acetic acid]
